Laboratory results as given in patent publication US20210332139A1, “MODULATION OF LEUKOCYTE ACTIVITY IN TREATMENT OF NEUROINFLAMMATORY DEGENERATIVE DISEASE” (Leuvas Therapeutics, priority 2013, published 2021).
Values joined by “and” are separate entries in the source; they are usually repeats but may differ in a detail not shown here. Identical values can stand only once.

Experiments:
Type in all cases: cell-based
neutrophils = assay: Rapid adhesion of neutrophils, soluble versus fibrillary Aβ1-42; conditions: mean+/−SD
Description: Although two-times less efficient than the soluble form, fibrillary Aβ triggered a significant increase of rapid neutrophil adhesion on both ICAM-1 and fibrinogen (Table 8; data are expressed as the mean+/−SD of bound cells in 0.2 mm^2 from three independent experiments made in duplicate).

mouse neutrophils = assay: Isoluminol chemiluminescence ROS assay, mouse neutrophils; conditions: mean+/−SD
Method: (§1) Isoluminol-based chemiluminescence assays were performed in HGCa in the presence of horseradish peroxidase (HRP) and isoluminol (both from Sigma-Aldrich) in a temperature-controlled Multilabel Count Victor X5 (Perkin Elmer). Assays were run in dark 96 well plates precoated with 250 μg/ml human fibrinogen in HGCa containing (final concentration): 100 μM isoluminol and 8 U/ml HRP. After addition of 1×10^5 human neutrophils or 7.5×10^5 mouse neutrophils, plates were left at 37° C. for 5-10 min and the reaction started by addition of the stimulus. Light emission was recorded every minute.
(§2) We used the chemotactic peptide fMLP as positive control. […] Data are mean+/−SD for three independent experiments.
Data are mean+/−SD counts per second.

human neutrophils [1] = assay: Isoluminol chemiluminescence ROS assay, human neutrophils; conditions: human neutrophils on fibrinogen, mean+/−SD
Method: One of the mechanisms of neuronal damage by beta-amyloid in Alzheimer's disease is the generation of reactive oxygen species (ROS). We determined whether Aβ1-42 oligomers induce ROS production in neutrophils by using a chemiluminescence assay.
as §1, §2

human neutrophils [2] = assay: Rapid adhesion of human neutrophils to fibrinogen and ICAM-1; conditions: mean+/−SD
Description: All data are expressed as the mean+/−SD of bound cells in 0.2 mm^2 from three independent experiments made in duplicate.

LFA-1 = LFA-1 affinity state in human neutrophils (conformer-specific antibodies, cytofluorimetry); conditions: 20 μM, 10 s, mean fluorescence intensity, ctrl = 1
Description: Neutrophil arrest is rapidly triggered by chemokines or other chemoattractants and is mediated by the binding of LFA-1 integrin to its vascular ligand ICAM-1. Ligation of specific heterotrimeric GPCRs by chemokines induces integrins to undergo a dramatic transition from a bent low-affinity conformation to extended intermediate- and high-affinity conformations, which leads to opening of the ligand-binding pocket. We hypothesized that Aβ may trigger intermediate and/or high affinity state of LFA-1 integrin and studied the effect of Aβ1-42 oligomers on human LFA-1 affinity using KIM127 and 327A conformer-specific antibodies for intermediate- and high-affinity state respectively.
The cells were stimulated for 10 s with 0.5 μmol/L of CXCL12, 0.1 μM fMLP, 20 μM Aβ1-42, or 20 μM Aβ42-1 under stirring at 37° C. After rapid washing, cells were stained with FITC-conjugated secondary polyclonal antibody and analyzed by cytofluorimetric quantification. Data are mean fluorescence intensity +/−SD from three independent experiments.

lymphocytes = assay: Rapid adhesion in lymphocytes; conditions: lymphocytes lack fMLP receptors, result in words
Method: It is known that one of the receptors for Aβ is the receptor for fMLP, formylpeptide chemotactic receptor (FPR). To evaluate the contribution of this GPCR receptor on Aβ-dependent neutrophil adhesion, we inhibited its function using boc-MLF, a formyl-peptide chemotactic receptor antagonist. Human neutrophils were incubated for 2 minutes with buffer (control) or with oligomeric Aβ. 0.1 μM fMLP was used as a positive control. Values are expressed as the mean counts of bound cells in 0.2 mm^2 from three independent experiments in duplicate. Error bars represent SD. […] To exclude the possibility that rapid adhesion triggering was a consequence of a generic plasma membrane alteration due to the lipophilic nature of Aβ, we evaluated rapid adhesion in lymphocytes, which are known to lack fMLP receptors.

human primary PMNs = assay: Static adhesion of human primary PMNs to ICAM-1 with signaling inhibitors; conditions: 10 μM Aβ, 1 min; listed as Aβ oligo
Method: As a model system, human primary PMNs were isolated form healthy donors stimulated to very rapid adhesion to purified human ICAM-1, ligand for the β2 integrins LFA-1 and Maci. fMLP (the classical chemoattractant) was the positive control. […] PMNs were treated for 30 min. with different concentrations of inhibitors followed by stimulation for 1 min with 50 nM fMLP or with 10 μM Aβ. The number of adherent cells was quantified by computer-assisted evaluation. Statistical analysis was SD.

Substance: Abeta 1-42: soluble oligomeric amyloid-beta 1-42 peptide used as stimulus
- Rapid adhesion to Fibrinogen (neutrophils; 15 μM): 180.7 ± 30.7 bound cells in 0.2 mm^2
- Rapid adhesion to ICAM-1 (neutrophils; 15 μM): 480.7 ± 61.7 bound cells in 0.2 mm^2
- Rapid adhesion to Fibrinogen (neutrophils; 30 μM): 419.2 ± 30.7 bound cells in 0.2 mm^2
- Rapid adhesion to ICAM-1 (neutrophils; 30 μM): 738.5 ± 29.3 bound cells in 0.2 mm^2
- ROS generation (chemiluminescence) (mouse neutrophils; 1 min): 226 ± 34 counts per second
- ROS generation (chemiluminescence) (mouse neutrophils; 2 min): 103 ± 17 counts per second
- ROS generation (chemiluminescence) (human neutrophils [1]; 1 min): 558 ± 112
- ROS generation (chemiluminescence) (human neutrophils [1]; 2 min): 540 ± 106
- ROS generation (chemiluminescence) (human neutrophils [1]; 3 min): 358 ± 132
- ROS generation (chemiluminescence) (human neutrophils [1]; 4 min): 235 ± 61
- ROS generation (chemiluminescence) (human neutrophils [1]; 5 min): 199 ± 76
- Rapid adhesion to Fibrinogen (human neutrophils [2]; 1 μM): 108.0 ± 26.1 bound cells in 0.2 mm^2
- Rapid adhesion to ICAM-1 (human neutrophils [2]; 1 μM): 156.5 ± 40.9 bound cells in 0.2 mm^2
- Rapid adhesion to Fibrinogen (human neutrophils [2]; 5 μM): 200.9 ± 48.7 bound cells in 0.2 mm^2
- Rapid adhesion to ICAM-1 (human neutrophils [2]; 5 μM): 184.0 ± 55.4 bound cells in 0.2 mm^2
- Rapid adhesion to Fibrinogen (human neutrophils [2]; 10 μM): 285.2 ± 38.9 bound cells in 0.2 mm^2
- Rapid adhesion to ICAM-1 (human neutrophils [2]; 10 μM): 229.2 ± 43.4 bound cells in 0.2 mm^2
- Rapid adhesion to Fibrinogen (human neutrophils [2]; 20 μM): 449.1 ± 34.0 bound cells in 0.2 mm^2
- Rapid adhesion to ICAM-1 (human neutrophils [2]; 20 μM): 281.0 ± 30.7 bound cells in 0.2 mm^2
- 327A (high-affinity state of LFA-1) (LFA-1): 3.29 ± 0.44
- KIM127 (intermediate-affinity state of LFA-1) (LFA-1): 2.54 ± 0.12
- Adhesion to fibrinogen or to ICAM-1 in lymphocytes (lymphocytes): did not induce adhesion
- Adherent hPMNs to ICAM-1, Aβ oligo, Mean, Control (no inhibitor) (human primary PMNs): 464.0 and 500.8 and 464.5 and 455.0 and 475.5 and 470.7
